Measurements taken from ChEMBL document CHEMBL6121012, “Chemical Basis of the Traditional Ayurvedic Detoxification Process of the Toxic Medicinal Plant Plumbago zeylanica” (J Nat Prod, 2025).

Assay: Cytotoxicity against human HepG2 cells assessed as reduction in cell viability incubated for 24 hrs by MTT assay
Format: toxicity, cell-based

Row | SMILES | IC50 at 24 h
1 | C[C@@H]1CC(=O)c2c(O)cccc2[C@@H]1O | 3000 µM
2 | C[C@@H]1CC(=O)c2c(O)cccc2[C@H]1O | 1000 µM
3 | CC1=CC(=O)c2c(O)cccc2C1=O [PLUMBAGIN] | 14 µM
